Like-named read-outs stand apart in the source and are kept apart here.
Experiments:
[1] = molecular target: T1, h-P2X4 (Homo sapiens, UniProt Q99571); assay: Mode of receptor inhibition, ATP dose-response curve at h-P2X4R; assay type: cell-based; set-up: expressed in transfected cells; host or cells: human 1321N1 astrocytoma cells
T1 sequence (Q99571 1-388): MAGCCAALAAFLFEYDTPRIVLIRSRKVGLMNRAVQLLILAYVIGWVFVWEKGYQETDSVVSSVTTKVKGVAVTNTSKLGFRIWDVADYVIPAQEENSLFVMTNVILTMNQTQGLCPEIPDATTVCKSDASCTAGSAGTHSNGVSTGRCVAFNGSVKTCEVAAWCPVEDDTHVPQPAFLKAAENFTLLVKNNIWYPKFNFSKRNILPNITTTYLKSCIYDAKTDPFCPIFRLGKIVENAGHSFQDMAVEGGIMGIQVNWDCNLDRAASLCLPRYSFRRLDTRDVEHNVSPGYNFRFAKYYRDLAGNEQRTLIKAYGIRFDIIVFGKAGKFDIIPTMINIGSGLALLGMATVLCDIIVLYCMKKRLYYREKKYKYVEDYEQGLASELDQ
Description: (§1) Different dilutions of compounds were administered to receptors expressed cell line.

[2] = test system: human 1321N1 Astrocytoma cell line; assay: MTT cytotoxicity assay, human 1321N1 astrocytoma cell line; assay type: cell-based; conditions: final concentration of 50 μM
Description: (§2) Cellular safety profiling of adamantane thioureas were done through MTT assay. All compounds were analyzed for toxicity at final concentration of 50 μM. […] Toxicity was determined against two cancer cell lines including human 1321N1 Astrocytoma cell line, HeLa cell line and a normal HEK-293 cell line.
(§3) c. Cell Viability Assay (MTT Assay)
(§4) After 24 h of incubation at 37° C. in CO2 incubator, culture media will be replaced with serum-free media along with test compounds and re-incubate. After 24 h, media will be removed and add 100 μL of MTT reagent (0.5-5 mg/mL) and will be incubated for a further 4 h, at 37° C. Absorbance will be measured at 570 and 630 nm to calculate cell viability.

[3] = test system: HEK-293 cell line; assay: MTT cytotoxicity assay, HEK-293 cell line; assay type: cell-based; conditions: final concentration of 50 μM
Description: as §2, §3, §4

[4] = test system: HeLa cell line; assay: MTT cytotoxicity assay, HeLa cell line; assay type: cell-based; conditions: final concentration of 50 μM
Description: as §2, §3, §4

[5] = molecular target: T2, h-P2X7 (Homo sapiens, UniProt Q99572); assay: Mode of receptor inhibition, BzATP dose-response curve at h-P2X7R; assay type: cell-based; set-up: expressed in transfected cells; host or cells: human 1321N1 astrocytoma cells
T2 sequence (Q99572 1-595): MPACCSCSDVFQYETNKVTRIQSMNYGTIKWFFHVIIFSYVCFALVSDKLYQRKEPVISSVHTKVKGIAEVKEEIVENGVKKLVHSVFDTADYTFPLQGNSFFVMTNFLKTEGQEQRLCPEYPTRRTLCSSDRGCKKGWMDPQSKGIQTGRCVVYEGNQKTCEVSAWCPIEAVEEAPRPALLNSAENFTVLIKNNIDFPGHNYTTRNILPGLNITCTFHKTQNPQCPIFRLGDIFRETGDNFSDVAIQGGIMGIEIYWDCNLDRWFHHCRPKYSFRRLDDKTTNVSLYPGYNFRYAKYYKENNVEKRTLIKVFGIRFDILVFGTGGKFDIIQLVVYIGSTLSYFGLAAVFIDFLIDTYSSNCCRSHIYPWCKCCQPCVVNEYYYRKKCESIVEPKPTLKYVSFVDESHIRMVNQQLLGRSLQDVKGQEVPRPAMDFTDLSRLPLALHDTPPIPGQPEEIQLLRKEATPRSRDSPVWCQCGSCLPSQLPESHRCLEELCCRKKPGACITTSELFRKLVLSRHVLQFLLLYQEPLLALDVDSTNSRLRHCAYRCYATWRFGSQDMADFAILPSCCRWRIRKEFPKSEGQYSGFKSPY
Description: as §1

[6] = molecular target: T3, h-P2X2 (Homo sapiens, UniProt Q9UBL9); assay: Ca2+ flux assay h-P2X2; conditions: for inhibition at 50 µM: read-out: h-P2X2 % Inhibition
T3 sequence (Q9UBL9 1-471): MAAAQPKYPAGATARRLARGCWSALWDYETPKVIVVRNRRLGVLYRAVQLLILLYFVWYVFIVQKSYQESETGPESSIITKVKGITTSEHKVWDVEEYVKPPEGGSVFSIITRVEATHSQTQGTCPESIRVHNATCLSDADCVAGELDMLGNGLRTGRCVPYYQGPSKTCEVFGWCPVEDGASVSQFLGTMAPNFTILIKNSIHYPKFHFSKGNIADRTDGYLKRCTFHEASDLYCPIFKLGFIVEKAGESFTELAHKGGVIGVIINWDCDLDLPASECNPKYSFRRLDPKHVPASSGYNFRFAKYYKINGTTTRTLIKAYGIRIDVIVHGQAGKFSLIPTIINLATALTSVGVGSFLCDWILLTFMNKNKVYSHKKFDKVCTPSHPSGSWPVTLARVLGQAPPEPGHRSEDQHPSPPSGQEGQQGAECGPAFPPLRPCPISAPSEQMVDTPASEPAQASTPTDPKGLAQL
Description: (§5) Compounds were initially analyzed at a final concentration of about 50 μM and percentage of inhibition was calculated.
(§6) Calcium Mobilization Assay to Measure P2X Receptors Response Cell Culture: P2X receptors functions can be analyzed from ATP-induced increase in cytosolic Ca^2+ concentration. Two Ca^2+ chelating dyes, Fura-2 AM and Fluo-4 AM can be used to determine the intracellular Ca^2+ concentration through a fluorescent imaging micro-titer plate reader (BMG Labtech: FLUOstar Galaxy®). Non-transfected human 1321N1 astrocytoma cells, as well as P2X receptors transfected human 1321N1 astrocytoma cells will be cultured in T-75 cm^2 cell culture flask having appropriate cell culture growth media; Dulbecco's Modified Eagle's medium (DMEM) supplemented with 10% fetal bovine serum (FBS), 75 μg/mL of Hygromycin B or human P2X receptors transfected cell lines and 1% pen-strep (antibiotics). Cells will be incubated at 37° C. in 5% CO2 incubator until 80 to 90% cell confluency will be achieved. Cells will be maintained in an exponential growth phase throughout the experiment and closely monitored for contamination.
Measurement of Ca^2+ Flux
(§7) When 1321N1 cells will reach 80 to 90% of confluency, cells will be harvested from T-75 cm^2 flask by trypsinization. After washing the cells with phosphate buffer saline (PBS), cells will be seeded at a density of 20,000 cells/well in black, clear bottom, poly-D-lysine coated 96 well plate. After 16 to 24 h, cell culture media will be removed and add Hank's balanced salt solution (HBSS) containing 3 μM Ca^2+ chelating dyes Fura-2 AM or Fluo-4 AM. After 1 h of incubation at 23° C., the loading dye solution will be removed, and added seven to eight dilutions of test compounds in triplicate format. ATP (at a concentration value of EC80) or buffer will be added and measured the excitation and emission at 340/520 nm and 380/520 nm through FLUOStar Galaxy®. Assay volume for the experiment will be 200 μL. IC50 and EC50 values will be calculated by PRISM 5.0 (GrapgPad, San Diego, Calif., USA) through non-linear regression analysis.

[7] = MTT cytotoxicity assay, human 1321N1 astrocytoma cell line; assay type: cell-based; conditions: human, 1321N1 astrocytoma cells, final concentration of 50 μM
Description: as §2, §3, §4

[8] = molecular target: h-P2X5 (Homo sapiens, UniProt Q93086); assay: Ca2+ flux assay h-P2X5; conditions: read-out: h-P2X5 % Inhibition
Description: as §5, §6
Measurement of Ca^2+ Flux
as §7

[9] = molecular target: T1, h-P2X4; assay: Ca2+ flux assay h-P2X4; conditions: for inhibition at 50 µM: read-out: h-P2X4 % Inhibition
Description: as §5, §6
Measurement of Ca^2+ Flux
as §7

[10] = molecular target: T2, h-P2X7; assay: BzATP induced Ethidium Bromide dye-uptake assay (pore formation); assay type: cell-based; set-up: expressed in transfected cells; host or cells: human 1321N1 astrocytoma cells; conditions: for Emax at 20 µM: read-out: Emax % (at 20 μM inhibitor concentration), BzATP induced Ethidium Bromide dye uptake, 20 μM inhibitor concentration, BzATP without inhibitor = 100; for IC50: serial dilution curves, read-out: IC50 ± SEM, BzATP induced Ethidium Bromide dye uptake
Description: This is a specific assay to access the activities of P2X7R. Prolong exposure of P2X7R leads to pore formation that results intake of large molecular weight dye through this pore. An inhibitor of P2X7R inhibits this pore formation that confirms the inhibitory potential of compounds.
e. Ethidium Bromide Dye-Uptake Assay for P2X7 Receptors: (Pore Formation)
Human astrocytoma 1321N1 cells stably expressing P2X7 receptors will be seeded in the black wall, clear bottom and poly-D-lysine coated 96 wells plate at a cell density of 20,000 cells/well. After 24 h of incubation, culture medium will be removed, and wash the cells with dye uptake buffer. Cells will be treated with ethidium bromide with the subsequent addition of different concentrations of Bz-ATP to 96 wells plate in triplicate format. […] For screening of P2X7 receptor antagonists, cells will be treated with different concentrations of test compounds for 15 min at 37° C. before the addition of Bz-ATP.

[11] = MTT cytotoxicity assay, HEK-293 cell line; assay type: cell-based; conditions: human, HEK-293 cells, final concentration of 50 μM
Description: as §2, §3, §4

[12] = molecular target: T2, h-P2X7; assay: Ca2+ flux assay h-P2X7; conditions: for IC50: read-out: h-P2X7 IC50 ± SEM, Ca2+ flux, n = 3; for inhibition at 50 µM: read-out: h-P2X7 % Inhibition
Description: as §5, §6
Measurement of Ca^2+ Flux
as §7

[13] = MTT cytotoxicity assay, HeLa cell line; assay type: cell-based; conditions: human, HeLa cells, final concentration of 50 μM
Description: as §2, §3, §4

[14] = read-out: h-P2X4 IC50 ± SEM, Ca2+ flux, n = 3

Sequence of h-P2X5 (Q93086 whole entry): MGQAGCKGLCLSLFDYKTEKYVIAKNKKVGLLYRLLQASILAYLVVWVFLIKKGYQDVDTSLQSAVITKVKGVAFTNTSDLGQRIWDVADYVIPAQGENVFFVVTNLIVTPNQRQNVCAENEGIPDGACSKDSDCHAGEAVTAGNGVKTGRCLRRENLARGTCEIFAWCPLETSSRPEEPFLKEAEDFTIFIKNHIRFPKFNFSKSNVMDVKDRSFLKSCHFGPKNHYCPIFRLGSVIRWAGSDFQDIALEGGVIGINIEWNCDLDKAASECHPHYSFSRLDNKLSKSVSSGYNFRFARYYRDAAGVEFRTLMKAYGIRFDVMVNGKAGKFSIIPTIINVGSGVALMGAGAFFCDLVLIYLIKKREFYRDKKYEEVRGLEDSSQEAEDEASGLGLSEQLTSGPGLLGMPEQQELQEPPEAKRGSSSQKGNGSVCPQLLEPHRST

Row | SMILES | inhibition at 50 µM [6] [%] | cytotoxicity at 24 h, 50 µM [7] [%] | inhibition at 50 µM [8] [%] | cytotoxicity at 24 h, 50 µM [11] [%] | cytotoxicity at 24 h, 50 µM [13] [%] | inhibition at 50 µM [12] [%] | also measured
1 | Nc1ncnc2c1ncn2[C@@H]1O[C@H](COP(=O)(O)OP(=O)(O)OP(=O)(O)O)[C@@H](O)[C@H]1O [ATP, reference compound] |  |  |  |  |  |  | EC50 ([1]; ATP without inhibitor, read-out: EC50 of ATP induced response): 5450 nM
2 | CC(C)c1cc(Br)c(NC(=O)Nc2cccnc2)c(Br)c1 [BX-430, reference compound] |  |  |  |  |  |  | Human 1321N1 Astrocytoma Cell Line (% cytotoxicity) [2]: 20.21%; HEK-293 Cell Line (% cytotoxicity) [3]: 2.85%; HeLa Cell Line (% cytotoxicity) [4]: 9.12%
3 | Nc1ncnc2c1ncn2[C@@H]1O[C@H](COP(=O)(O)OP(=O)(O)OP(=O)(O)O)[C@@H](OC(=O)c2ccc(C(=O)c3ccccc3)cc2)[C@H]1O [BzATP, reference compound] |  |  |  |  |  |  | EC50 ([5]; BzATP without inhibitor, read-out: EC50 of BzATP induced response): 7090 nM
4 | O=C(NC(=S)Nc1cccnc1Cl)C12CC3CC(CC(C3)C1)C2 [If, N-((2-chloropyridin-3-yl)carbamothioyl)adamantane-1-carboxamide] | 13.2 | 11.4 | 25.5 | 4.95 | 5.21 |  | IC50 [9, 14]: 1270 ± 110 nM; Emax at 20 µM [10]: 47%; IC50 [10]: 310 ± 70 nM; IC50 [12]: 99 ± 70 nM
5 | Cc1cc(Br)ccc1NC(=S)NC(=O)C12CC3CC(CC(C3)C1)C2 [In, N-((4-bromo-2-methylphenyl)carbamothioyl)adamantane-1-carboxamide] | 22.7 | 14.3 | 27.1 | 14 | 4.1 | 18.8 | inhibition at 50 µM [9]: 34.9%
6 | O=C(NC(=S)Nc1cccc2cccnc12)C12CC3CC(CC(C3)C1)C2 [Io, N-(quinolin-8-ylcarbamothioyl)adamantane-1-carboxamide] | 15.3 | 9.12 | 31.5 | 17.6 | 6.22 |  | mechanism of receptor inhibition ([5]; h-P2X7R expressed cell line, different dilutions of compound): negative allosteric modulators; inhibition at 50 µM [9]: 25.1%; Emax at 20 µM [10]: 70%; IC50 [10]: 136 ± 20 nM; IC50 [12]: 73 ± 40 nM
7 | CC(C)c1ccc(NC(=S)NC(=O)C23CC4CC(CC(C4)C2)C3)c(Br)c1 [Ip, N-((2-bromo-4-isopropylphenyl)carbamothioyl)adamantane-1-carboxamide] | 30.2 | 19.7 | 12.4 | 20.6 | 23.5 | 42.5 | IC50 [9, 14]: 40 ± 10 nM; mechanism of receptor inhibition ([1]; h-P2X4R expressed cell line, different dilutions of compound): negative allosteric modulators
8 | O=C(NC(=S)Nc1cc(Br)ccc1Br)C12CC3CC(CC(C3)C1)C2 [Iq, N-((2,5-dibromophenyl)carbamothioyl)adamantane-1-carboxamide] | 41.1 | 21.2 | 16.2 | 14.8 | 20.7 | 11.2 | IC50 [9]: 5730 ± 420 nM
9 | CN(C)CCCNC(=S)NC(=O)C12CC3CC(CC(C3)C1)C2 [Ir, N-((3-(dimethylamino)propyl)carbamothioyl)adamantane-1-carboxamide] | 2.15 | 10.1 | 11.2 | 5.16 | 8.14 | 5.01 | inhibition at 50 µM [9]: 0%
10 | Cc1nc(N=Nc2ccc(S(=O)(=O)O)cc2S(=O)(=O)O)c(COP(=O)(O)O)c(C=O)c1O [PPADS, reference compound] |  |  |  |  |  |  | Human 1321N1 Astrocytoma Cell Line (% cytotoxicity) [2]: 19.02%; HEK-293 Cell Line (% cytotoxicity) [3]: 42.58%; HeLa Cell Line (% cytotoxicity) [4]: 17.92%
11 | Nc1c(S(=O)(=O)O)cc(Nc2ccc(Nc3nc(Cl)nc(Nc4cccc(S(=O)(=O)O)c4)n3)c(S(=O)(=O)O)c2)c2c1C(=O)c1ccccc1C2=O [Reactive Blue 2, reference compound] |  |  |  |  |  |  | IC50 ([6]; read-out: h-P2X2 IC50 ± SEM, Ca2+ flux, n = 3): 890 ± 410 nM; Human 1321N1 Astrocytoma Cell Line (% cytotoxicity) [2]: 20.82%; HEK-293 Cell Line (% cytotoxicity) [3]: 39.89%; IC50 [12]: 2790 ± 220 nM; HeLa Cell Line (% cytotoxicity) [4]: 14.47%

From patent publication US20230141034A1, “ADAMANTANE-1-CARBONYL THIOUREA, AS P2X RECEPTOR ANTAGONIST” (COMSATS UNIVERSITY ISLAMABAD, priority 2021, published 2023)
